The assay concerns the target T1, human H3R (Homo sapiens, UniProt Q9Y5N1).
T1 construct: expressed in transfected cells; host or cells: CHO cells
The assay can be described thus: Binding assay with 3H-(R)α-methylhistamine (competition binding, membranes of the human H3R-CHO cell line). The following applies: competition with 3H(R)α-methylhistamine (1 nM), Ki calculated from IC50 by Cheng-Prusoff. The protocol: Binding Assay With ^3H—(R)α-methylhistamine
Saturation binding experiments were performed using HR3-CHO membranes prepared as described in Takahashi, K, Tokita, S., Kotani, H. (2003) J. Pharmacol. Exp. Therapeutics 307, 213-218.
An appropriate amount of membrane (60 to 80 μg protein/well) was incubated with increasing concentrations of ^3H(R)α-Methylhistamine di-hydrochloride (0.10 to 10 nM). Non specific binding was determined using a 200 fold excess of cold (R)α-Methylhistamine dihydrobromide (500 nM final concentration). The incubation was carried out at room temperature (in deep-well plates shaking for three hours). The final volume in each well was 250 μl. The incubation was followed by rapid filtration on GF/B filters (pre-soaked with 100 μl of 0.5% PEI in Tris 50 mM shaking at 200 rpm for two hours). The filtration was made using a cell-harvester and the filter plates were then washed five times with ice cold washing buffer containing 0.5 M NaCl. After harvesting, the plates were dried at 55° C. for 60 min, then we added scintillation fluid (Microscint 40, 40 microl in each well) and the amount of radioactivity on the filter was determined in Packard top-counter after shaking the plates for two hours at 200 rpm at room temperature.
Binding Buffer: 50 mM Tris-HCl pH 7.4 and 5 mM MgCl2×6H2O pH 7.4. Washing Buffer: 50 mM Tris-HCl pH 7.4 and 5 mM MgCl2×6H2O and 0.5 M NaCl pH 7.4.
Indirect measurement of affinity of H3R inverse agonists: twelve increasing concentrations (ranging from 10 μM to 0.3 nM) of the selected compounds were always tested in competition binding experiments using membrane of the human H3R—CHO cell line. An appropriate amount of protein, e.g. approximately 500 cpm binding of RAMH at Kd, were incubated for 1 hour at room temperature in 250 μl final volume in 96-well plates in presence of ^3H(R)α-methylhistamine (1 nM final concentration=Kd). Non-specific binding was determined using a 200 fold excess of cold (R)α-methylhistamine dihydrobromide.
All compounds were tested at a single concentration in duplicate. […] The concentration at which 50% inhibition of the radioligand ^3H(R)α-methylhistamine is obtained (the IC50) is determined from the linear regression of a plot of the logarithm of the concentration versus percent inhibition measured for the different concentrations. Ki's were calculated from IC50 based on Cheng-Prusoff equation (Cheng, Y, Prusoff, W H (1973) Biochem Pharmacol 22, 3099-3108): Ki=IC50/[1+D/Kd] wherein D is the concentration of the radioligand and Kd is the binding constant for the radioligand binding to the receptor under the conditions used in the competition experiment.
T1 sequence (Q9Y5N1 whole entry): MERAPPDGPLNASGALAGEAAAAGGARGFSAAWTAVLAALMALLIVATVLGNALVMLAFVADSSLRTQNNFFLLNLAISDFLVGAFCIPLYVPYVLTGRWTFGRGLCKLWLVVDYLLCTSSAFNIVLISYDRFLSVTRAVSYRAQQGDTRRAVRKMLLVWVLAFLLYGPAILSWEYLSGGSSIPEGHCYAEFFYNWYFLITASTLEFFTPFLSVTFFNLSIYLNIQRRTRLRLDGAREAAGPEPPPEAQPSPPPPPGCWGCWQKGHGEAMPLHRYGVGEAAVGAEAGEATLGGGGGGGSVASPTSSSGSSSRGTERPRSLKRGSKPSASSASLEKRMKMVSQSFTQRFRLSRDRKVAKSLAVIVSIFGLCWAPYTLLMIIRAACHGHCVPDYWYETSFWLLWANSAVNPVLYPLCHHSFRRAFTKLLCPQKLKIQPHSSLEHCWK
Consider `CC(C)N1CCN(C(=O)c2ccc3c(ccn3CC3CCCC3)c2)CC1` [Example 1, (1-Cyclopentylmethyl-1H-indol-5-yl)-(4-isopropyl-piperazin-1-yl)-methanone], for which the Ki is 84.4 nM.
With `CC(C(=O)c1ccccc1)n1ccc2c(C(=O)N3CCN(C4CCCC4)CC3)cccc21` (stereo not shown) [Example 34, 2-[4-(4-Cyclopentyl-piperazine-1-carbonyl)-indol-1-yl]-1-phenyl-propan-1-one] the figure was 93.5 nM; with `O=C(c1ccc2c(ccn2S(=O)(=O)c2cccs2)c1)N1CCN(C2CCCC2)CC1` [Example 20, (4-cyclopentyl-piperazin-1-yl)-[1-(thiophene-2-sulfonyl)-1H-indol-5-yl]-methanone], 52.2 nM; with `O=C(c1cccc2c1ccn2Cc1ccc(F)cc1Cl)N1CCN(C2CCCC2)CC1` [Example 41, [1-(2-chloro-4-fluoro-benzyl)-1H-indol-4-yl]-(4-cyclopentyl-piperazin-1-yl)-methanone], 17.4 nM.

The values are drawn from patent US7557108B2, “(Indol-4-yl) or (indol-5-yl)-piperazinylmethanones” (Hoffmann-La Roche Inc., priority 2007, dated 2009).
